Data published in EP1708721B1, “MYOCARDIAL PERFUSION IMAGING USING ADENOSINE RECEPTOR AGONISTS” (Gilead Sciences, Inc., priority 2004, dated 2005).

Experiments:
[1] = test system: awake dogs; assay: Example 8: vasodilator effects in different vascular beds of chronically instrumented dogs; assay type: in vivo
Source text: In this study the vasodilator effects of CVT-3146 were compared to those of ADO in different vascular beds in awake dogs. Dogs were chronically instrumented for measurements of the blood flow in coronary (CBF), mesenteric (MBF), hind limb (LBF), and renal (RBF) vascular beds, and hemodynamics.

[2] = test system: healthy volunteers; assay: Example 3: maximum tolerated dose and safety after a single IV bolus, supine and standing; assay type: in vivo
Experimental: This Example is a study performed to evaluate (1) the maximum tolerated dose of CVT-3146 and (2) the pharmacokinetic profile of CVT-3146 in healthy volunteers, after a single IV bolus dose.
The study was performed using thirty-six healthy, non-smoking male subjects between the ages of 18 and 59 and within 15% of ideal body weight
The study was performed in phase 1, single center, double-blind, randomized, placebo-controlled, crossover, ascending dose study. Randomization was to CVT-3146 or placebo, in both supine and standing positions.
CVT-3146 was administered as an IV bolus (20 seconds) in ascending doses of […], 10, 20 and 30 µg/kg.
Subjects received either CVT-3146 or placebo on Day 1 supine, then crossover treatment on Day 2 supine. On Day 3, subjects received CVT-3146 or placebo standing, then crossover treatment on Day 4 standing.
Patient safety was monitored by ECG, laboratory assessments, and collection of vital signs and adverse events. Pharmacokinetics: • Plasma samples were drawn during supine phase (Days 1 and 2) at 0, 1, 2, 3, 4, 5, 7,10, 15, 20, 30, 45 minutes after dosing and at 1, 1.5., 2, 4, 6, 8,12 and 24 hours after dosing. Urine was collected for 24 hours for […] excretion. Pharmacodynamics: • The study evaluated the relationship of changes in heart rate to dose in both standing and supine positions and plasma concentration in the supine position.

[3] = test system: humans; assay: Example 1: open label study, CBFv by Doppler flow wire after IV bolus in catheterization patients; assay type: in vivo
Experimental: The purpose of this open label study was to determine the magnitude and duration of effect of CVT-3146 (10-500 µg) on CBFv in humans.
METHODS: Patients undergoing a clinically indicated coronary catheterization with no more than a 70% stenosis in any coronary artery and no more than a 50% stenosis of the study vessel had CBFv determined by Doppler flow wire. Study subject were selected after measuring baseline and peak CBFv after an intracoronary (IC) injection of 18 µg of Ado. Twenty-three patients, who were identified as meeting the study criteria of having a peak to baseline CBFv ratio of ≥ 2.5 in response to Adenosine, received a rapid (≤ 10 sec) peripheral IV bolus of CVT-3146; Doppler signals were stable and interpretable over the time-course of the increase in CBFv in 17 patients.

[4] = test system: awake rats; assay: Example 5: sympathoexcitation, heart rate, blood pressure and plasma catecholamines after i.v. bolus; assay type: in vivo
Experimental: The present study was carried out to determine whether CVT-3146, a selective A2A adenosine receptor agonist, causes sympathoexcitation. CVT-3146 (0.31µg/kg-50 µg/kg) was given as a rapid i.v. bolus to awake rats and heart rate (HR) and blood pressure (BP) were monitored. CVT-3146 caused an increase in BP and systolic pressure (SP) at lower doses while at higher doses there was a decrease in BP and SP. […] The increase in HR was evident at the lowest dose of CVT-3146 at which there was no appreciable decrease in BP. ZM241385 (30 µg/kg , N=5), an A2A receptor antagonist, attenuated the decrease in BP (CVT-3146: 14±3%, ZM: 1±1 %) and the increase in HR (CVT: 27±3%, ZM: 18±3%) caused by CVT-3146. Pretreatment with metoprolol (MET, 1 mg/kg, n=5), a beta-blocker, attenuated the increase in HR (CVT: 27±3%, MET: 15±2%), but had no effect on hypotension caused by CVT-3146. In the presence of hexamethonium (HEX, 10 mg/kg, n=5), a ganglionic blocker, the tachycardia was prevented (CVT: 27±3%, HEX: -1±2%), but BP was further reduced (CVT: -11±2%, HEX: -49±5%).

[5] = test system: subjects (26 men, 9 women); assay: Example 6: stress/rest SPECT myocardial perfusion imaging, adenosine versus CVT-3146; assay type: in vivo, human
Experimental: To determine the ability of CVT-3146 to produce coronary hyperemia and accurately detect CAD, 35 subjects (26 men, 9 women; 67±10 years) underwent both A and CVT-3146 stress/rest MPI, with 10.0±9.1 days between studies. […] CVT-3146 [400 mcg (n=18), 500 mcg (n=17)] was administered as an IV bolus immediately followed by a saline flush, and then a Tc-99m radiopharmaceutical [sestamibi (n=34), tetrofosmin (n=1)]. SPECT images were uniformly processed, intermixed with control studies (normal and fixed-only defects), and interpreted by three observers in a blinded fashion using a 17-segment model. Quantitative analysis was also performed using 4D MSPECT. In addition to three separate readings, a consensus interpretation was performed and then a direct, same-screen comparison of A and CVT-3146 images undertaken to determine relative differences, using 5 regions per study.

[6] = severe in intensity, 20 µg/kg Standing, 4 subjects per group
[7] = direct comparison of A and CVT-3146 images, 5 regions per study

With `CNC(=O)c1cnn(-c2nc(N)c3ncn([C@@H]4O[C@H](CO)[C@@H](O)[C@H]4O)c3n2)c1` [CVT-3146, (1-{9-[(4S,2R,3R,5R)-3,4-dihydroxy-5-(hydroxymethyl)oxolan-2-yl]-6-aminopurin-2-yl}pyrazol-4-yl)-N-methylcarboxamide] the “duration for CBF above 2-fold of the baseline” value ([1]; 2.5 µg/kg) was 130 ± 19 s, the “increase in LBF (hind limb blood flow)” value ([1]; Figure 18, mean ± SE, n=6, compared with ADO) was “smaller increase in LBF than ADO” and the serious adverse events ([2]; IV bolus 0.1 to 30 µg/kg) was “no serious adverse events”. The “Number of Subjects with AE: Dizziness” value [2, 6] was 1, the “Number of Subjects with AE: Palpitation” value [2, 6] was 0 and the “Number of Subjects with AE: Syncope” value [2, 6] was 1. For the same molecule, the “Number of Subjects with AE: Dizziness” value ([2]; severe in intensity, 30 µg/kg Supine, 4 subjects per group) was 0, the “duration of CBFv augmentation (≥ 2-fold increase in CBFv)” value ([3]; 300 µg IV bolus) was 4.0 ± 4.9 min and the “duration of CBFv augmentation (≥ 2-fold increase in CBFv)” value ([3]; 500 µg IV bolus) was 6.9 ± 7.6 min. For the same molecule, the “maximal decrease in systolic blood pressure (BP)” value ([3]; 500 µg IV bolus (n=3)) was 8.7 ± 7.6, the “maximal increase in heart rate (HR)” value ([3]; 500 µg IV bolus (n=3)) was 18.7 ± 4.0 and the “Adverse events (AEs)” value ([3]; 3 patients receiving the 500 µg dose) was “No AEs were noted”. The “Adverse events (AEs)” value ([3]; 10-500 µg IV bolus, nausea, flushing, headache, mild and self-limited) was “infrequent”, the “peak to baseline ratio (CBFv)” value ([3]; IV bolus, doses of 100 µg (n=3), 300 µg (n=4) and 500 µg (n=2), mean ± SD) was 3.2 ± 0.6 and the “increase in HR” value ([4]; CVT-3146 alone) was 27±3%. The “decrease in BP” value ([4]; CVT-3146 alone (comparison with ZM241385)) was 14±3%, the “BP (change)” value ([4]; CVT-3146 alone (comparison with hexamethonium)) was -11±2% and the “summed scores following stress, quantitative methods of analysis” value ([5]; SPECT MPI, 4D MSPECT, CVT-3146 400 or 500 mcg IV bolus, A infusion) was 13.6±1.6. The “summed scores following stress, visual” value ([5]; SPECT MPI, 17-segment model, CVT-3146 400 or 500 mcg IV bolus, A infusion) was 13.2±1.3, the “regional concordance for ischemia extent” value [5, 7] was 86.3% and the “regional concordance for ischemia severity” value [5, 7] was 83.4%.
